The values that follow come from US20230127898A1, “HEPATITIS B CAPSID ASSEMBLY MODULATORS” (Venatorx Pharmaceuticals, Inc., priority 2020, published 2023).

The structures appear in SMILES notation.

Series [1] relates to HBV replication in HepAD38 cells. As to the kind of experiment: In vitro antiviral assay: extracellular HBV DNA by QPCR in HepAD38 cells. The class given is cell-based, HBV (genotype D, serotype ayw). To be noted: Hepatitis B virus, 168 h, 7 days incubation, read-out: Anti-HBV EC50. The method, then:
The anti-HBV activity of the Capsid Assembly Modulators (CAMs) was evaluated in a cell based assay utilizing the human hepatoma cell line HepAD38 (Ladner, S K., et al., 1998). HepAD38 cells were derived from the parental line, HepG2, that were stably transfected with a construct containing an HBV genome (genotype D, serotype ayw) under the control of a tetracycline repressible CMV promoter. Upon removal of tetracycline, viral pre-genomic RNA (pgRNA) and mRNAs are expressed and infectious viral particles are assembled and secreted into the culture medium providing a reliable, robust system to measure multiple steps of the HBV life cycle. Disruption of capsid formation results in reduced levels of DNA-containing virus particles that are released into the culture supernatant. To quantify the effect of CAMs on HBV replication, we developed a sensitive QPCR-based assay that measures extracellular HBV DNA levels upon treatment of HepAD38 cells with various concentrations of test compounds.
HepAD38 cells were maintained in DMEM/F12 medium containing 10% FBS, 400 μg/mL G418 and 0.3 μg/mL tetracycline (tet+media) to maintain repression of HBV replication. To evaluate each compound, HepAD38 cells were seeded into 24-well collagen coated culture plates (Corning BioCoat) at a density of 200,000 cells per well in 1 mL of medium without tetracycline (tet-media) and allowed to adhere overnight at 37° C., 5% CO2 in a humidified incubator. The following day, media was refreshed and a dose range of each compound was prepared by performing 1 log10 serial dilutions in 100% DMSO at 200×the desired assay concentration. Dilutions were then added to the cells resulting in a final dose range of 1 μM to 10 pM and the plates were returned to the incubator. Following 7 days of incubation, culture supernatants were harvested and HBV DNA levels were evaluated by QPCR and compared to the vehicle treated control wells (i.e. DMSO alone).
To quantify HBV DNA levels, cell culture supernatants were diluted 1:10 in sterile, nuclease-free water (Gibco). The diluted supernatants were subsequently added to a PCR master mix containing 1×Roche Light Cycler Master Mix, 0.5 μM forward primer, 0.5 μM reverse primer, 0.2 μM Roche Universal Probe Library Probe 25. The volume was brought to 20 μL with nuclease-free water and amplification of the HBV target sequence was performed using a Roche LightCycler 480 QPCR instrument. PCR extended out to 45 cycles with each cycle consisting of a denaturation step at 95° C. for 10 sec., followed by an annealing step at 60° C. for 10 sec. and a brief extension step at 72° C. for 1 sec.
Extracellular HBV DNA levels, expressed in copies/mL, were determined by comparison to a standard curve (10^2-10^9 copies/mL) using the Roche LightCycler analysis software. These values were subsequently converted to percent inhibition of HBV replication by dividing the HBV DNA levels in the experimental samples with those obtained from the vehicle control (˜1-2×10^5 copies/mL). Potency, expressed as an EC50(the effective concentration required to inhibit 50% of HBV replication), was calculated from the dose-response curve using a 4-parameter non-linear regression analysis (GraphPad Prism). The nucleoside analog inhibitor entecavir was used as a positive control to validate each assay run. The EC50 value of entecavir in the HepAD38 assay was 0.5 nM, as previously reported in the literature.

Series [2] can be described thus: In vitro cytotoxicity assay (MTT cell viability) in HepG2 cells. The class given is cell-based. The following applies: human. The method, then: To evaluate antiviral selectivity, the cytotoxic activity of each compound was determined using a standard cell viability assay performed on the parental HepG2 cell line. Cell viability was determined by measuring the conversion of 3-(4,5-dimethylthiazol-2-yl)-2,5-diphenyltetrazolium bromide (MTT) to the insoluble formazan salt crystal that occurs in live cells. Briefly, HepG2 cells were seeded in 96-well plates at a density of 20,000 cells per well in EMEM+10% FBS (complete growth medium) and allowed to adhere overnight in a 37° C., 5% CO2 humidified incubator. The next day, test agents were prepared by performing 8 half-log10 serial dilutions in 100% DMSO at 200×the final desired concentration in the assay. Compounds were tested over a range of concentrations from 30 μM to 1.0 nM in the assay. HepG2 cells were incubated in the presence of various concentrations of CAMs for 7 days in a 37° C., 5% CO2 humidified incubator. At the completion of the 7-day incubation period, MTT reagent was added to each well and the mixture was incubated for an additional 3-4 hours. At the completion of the incubation period, all wells were aspirated to remove the culture medium. The formazan crystals were solubilized from the cell monolayers with 100% DMSO. Plates were briefly mixed on an orbital shaker and absorbance was measured at 492 nm using a Perkin-Elmer EnVision multi-label plate reader. All absorbance values were converted to a percentage of the signal obtained from the vehicle treated controls. Absorbance values at 492 nm are directly proportional to the number of viable cells present in the sample. A CC50 value (cytotoxic concentration that results in loss of 50% cell viability) was calculated from the dose-response curve by 4-parameter, non-linear regression analysis using the GraphPad Prism software. The positive control compound, staurosporine, reduced the viability of HepG2 cells in a dose-dependent manner (CC50=100 nM).

The test system of series [3] is HBV. The following applies: Phase 1b clinical trial, 600 mg bid dosing for 29 days; cited from earlier work.

By EC50 is commonly meant the concentration giving half of the maximal effect. The CC50 is the concentration giving 50% cytotoxicity. The low end stands for harm at low concentration, the high end for better tolerance by the cells. Turning to `Cc1c2c(c(C(=O)Nc3ccc(F)c(F)c3)n1C)CCC(C)NC2=O` (stereo not drawn) [Example 48, N-(3,4-difluorophenyl)-2,3,6-trimethyl-4-oxo-2,4,5,6,7,8-hexahydropyrrolo[3,4-c]azepine-1-carboxamide], the EC50 in series [1] was 0.5 to 1 µM. For the same compound, the CC50 at 7 days in series [2] is greater than 30 µM.

`O=C(Nc1cc(F)c(F)c(F)c1)c1ccc(F)c(S(=O)(=O)N2CCC(O)CC2)c1` [NVR 3-778]: in series [3], the “reduction in HBV DNA” value was −1.7 log 10.
